This is an account of results in US20230106465A1, “7-Gene Prognostic and Predictive Assay for Non-Small Cell Lung Cancer in Formalin Fixed and Paraffin Embedded Samples” (West Virginia University, priority 2019, published 2023).

Holding throughout (format): in vivo, human
Experiment [1] concerns SLC39A8. Put plainly: Cox proportional hazard model using SLC39A8 ΔCt values in qRT-PCR of NSCLC patients treated with chemotherapy. Particulars: SLC39A8 expression. From the text: (§1) Patient samples. All NSCLC patients were staged I, II, or IIIA at the time of diagnosis. Tumor tissues were collected in surgical resections and were then formalin fixed or paraffin embedded until used for RNA extraction. Tumor cell content was above 50% for qRT-PCR assays. Those with missing AJCC staging information, missing histology, death within 30 days of resection or from other disease conditions were excluded from further analysis. A total of 122 NSCLC patient samples were obtained from Case Western Reserve University (CWRU) Comprehensive Cancer Center. […] The tissue collection in this study was approved by an Institutional Review Board (IRB) at each institution.
(§2) RNA extraction, and quality and concentration assessments. […] The quality and integrity of the RNA, the 28S to 18S ratio, and a visual image of the 28S and 18S bands were evaluated on the 2100 Bioanalyzer (Agilent Technologies, CA). […] The RNA concentration of each sample was assessed using a Nanodrop-1000 Spectrophotometer (NanoDrop Tech, Germany). […]
(§3) Real-time quantitative RT-PCR low-density arrays. […]
(§4) Three hundred thirty seven (337) tumor samples were analyzed with good RNA quality using TaqMan microfluidic low-density array (LDA) plates on an ABI 7900HT Fast RT-PCR instrument (Applied Biosystems).
(In general: Quantitative PCR measures a nucleic acid by following its amplification.)

The test system of experiment [2] is FUT7. Put plainly: Cox proportional hazard model using FUT7 ΔCt values in qRT-PCR of NSCLC patients treated with chemotherapy. Particulars: FUT7 expression.
Source text: Patient samples. All NSCLC patients were staged I, II, or IIIA at the time of diagnosis. Tumor tissues were collected in surgical resections and were then formalin fixed or paraffin embedded until used for RNA extraction. Tumor cell content was above 50% for qRT-PCR assays. Those with missing AJCC staging information, missing histology, death within 30 days of resection or from other disease conditions were excluded from further analysis. A total of 122 NSCLC patient samples were obtained from Case Western Reserve University (CWRU) Comprehensive Cancer Center. Total RNA of good quality was extracted from 89 tumor specimens. […]
RNA extraction, and quality and concentration assessments. […] The quality and integrity of the RNA, the 28S to 18S ratio, and a visual image of the 28S and 18S bands were evaluated on the 2100 Bioanalyzer (Agilent Technologies, CA). RNA assessed as having good quality from […] tumor samples was included for further analysis. The RNA concentration of each sample was assessed using a Nanodrop-1000 Spectrophotometer (NanoDrop Tech, Germany). […]
as §3
Three hundred thirty seven (337) tumor samples were analyzed with good RNA quality using TaqMan microfluidic low-density array (LDA) plates on an ABI 7900HT Fast RT-PCR instrument (Applied Biosystems). Total RNA samples were analyzed on an Agilent 2100 Bioanalyzer RNA 6000 Nano LabChip. […]

Experiment [3] relates to ABCC4. The experiment in a line: Cox proportional hazard model using ABCC4 ΔCt values in qRT-PCR of NSCLC patients treated with chemotherapy. The following applies: ABCC4 expression; patients treated with the named agent(s).
Source text: as §1, §2, §3, §4

For the molecule `Nc1nc2[nH]cc(CCc3ccc(C(=O)N[C@@H](CCC(=O)O)C(=O)O)cc3)c2c(=O)[nH]1` [Alimta, pemetrexed], the Chemosensitive/resistant entry in experiment [1] is given as “Chemoresistant”.
`N.N.O=C([O-])C1(C(=O)[O-])CCC1.[Pt+2]` [Carboplatin, carboplatin]: the Chemosensitive/resistant entry in experiment [2] is listed as “Chemosensitive”.
As for `CC(=O)O[C@H]1C(=O)[C@@]2(C)[C@H]([C@H](OC(=O)c3ccccc3)[C@]3(O)C[C@H](OC(=O)[C@H](O)[C@@H](NC(=O)c4ccccc4)c4ccccc4)C(C)=C1C3(C)C)[C@]1(OC(C)=O)CO[C@@H]1C[C@@H]2O` [Taxol, paclitaxel], the Chemosensitive/resistant result in experiment [3] and in experiment [1] was “Chemoresistant” each time.
